Data set [1] can be described thus: Acute toxicity, single oral administration to mice. The conditions noted are these: mouse, in vivo. From the text: The results which have been obtained with representative members of the class of compound defined by general formula I in the experiments described previously are compiled in the following Table. Moreover, the Table contains data concerning the acute toxicity of some of these compounds (LD50 in mg/kg in the case of single oral administration to mice).

For data set [2], the target named is central benzodiazepine receptors. Nature of the data set: Inhibition of binding of tritiated diazepam at specific benzodiazepine receptors in the cerebral cortex. The conditions noted are these: 50 percent inhibition of specific binding of tritiated diazepam. On the procedure: The affinity of compounds of general formula I to the central benzodiazepine receptors was determined according to the method described in Life Science 20, 2101-2110 (1977) and Science 198, 849-851 ([…]). According to this method, the inhibition of the binding of tritiated diazepam at the specific benzodiazepine receptors in the cerebral cortex by the respective test substances is ascertained. The IC50 ("50% inhibiting concentration") is that concentration of the respective test substance which brings about a 50 percent inhibition of the specific binding of the tritiated diazepam at the specific benzodiazepine receptors in the cerebral cortex.

In data set [3] the test system is spasmodic seizures caused by pentetrazole. Nature of the data set: Antipentetrazole test (anticonvulsant). Format: in vivo. The conditions noted are these: Rattus norvegicus, po, 0.5 h; female rats 60-80 g, p.o., 30 minutes before 120 mg/kg pentetrazole i.p.; protects 50% of animals. Here is the method: The central properties of the compounds of formula I in accordance with the invention can be determined, for example, in the antipentetrazole test which is described hereinafter and which is generally recognized for recording anticonvulsant properties.
In this animal experiment the compound under investigation is administered orally to female rats weighing 60-80 g and 30 minutes later there are administered i.p. 120 mg/kg of pentetrazole, which causes emprosthotonus and tonic stretchings of the fore and/or hind limbs in unprotected experimental animals 1-4 minutes after the injection. Ten experimental animals are used per dosage of test substance. After counting the protected experimental animals the ED50 is determined according to the Probit method. The ED50 is that dosage which protects 50% of the experimental animals from the spasmodic seizures caused by pentetrazole.

The LD50 is the dose expected to kill half of the subjects tested. Low values mean a more toxic substance, high ones a less toxic substance. By IC50 is commonly meant the concentration that inhibits the measured activity by half. One may read the ED50 as the dose that gives a 50% effect, or the effect in half of the subjects. Higher therefore signals a need for a large dose.

The structures appear in SMILES notation.

In turn, `Cc1noc(-c2ncn3c2[C@@H]2CCCN2C(=O)c2c(Cl)cccc2-3)n1` registered an LD50 in data set [1] of 2000 to 4000 mg/kg. For the same compound, the IC50 in data set [2] stood at 2.3 nM. The same compound showed an ED50 in data set [3] of 0.08 mg/kg.

Compound `Cc1nnc(-c2ncn3c2[C@@H]2CCCN2C(=O)c2c(Cl)cccc2-3)o1` showed an LD50 in data set [1] of 312 to 625 mg/kg. The compound further returned an IC50 in data set [2] of 8.4 nM. Moreover, the ED50 in data set [3] was 2.7 mg/kg.

In data set [1], `Cc1noc(-c2ncn3c2CN(C)C(=O)c2c(Cl)cccc2-3)n1` yielded an LD50 of 1250 to 2500 mg/kg. For the same compound, the IC50 in data set [2] came to 3.9 nM. The compound also showed an ED50 in data set [3] of 0.43 mg/kg.

On to `O=C1c2c(Cl)cccc2-n2cnc(-c3noc(C(F)(F)F)n3)c2[C@@H]2CCCN12`, for which, in data set [2], the IC50 was 9.6 nM. Further, the ED50 in data set [3] was found to be 1.2 mg/kg.

As to `CN1Cc2c(-c3nc(C4CC4)no3)ncn2-c2cccc(Cl)c2C1=O`, the IC50 in data set [2] came to 4.5 nM. This compound also yielded an ED50 in data set [3] of 0.034 mg/kg.

As to `O=C1c2c(Cl)cccc2-n2cnc(-c3nc(C4CC4)no3)c2[C@@H]2CCCN12`, in data set [1], the LD50 fell in the range of 1250 to 2500 mg/kg. This compound also showed an IC50 in data set [2] of 2.2 nM. The compound further yielded an ED50 in data set [3] of 0.2 mg/kg.

With `CN1Cc2c(-c3nc(C4CC4)no3)ncn2-c2ccc(F)cc2C1=O`, the IC50 in data set [2] is 5.6 nM. Further, in data set [3], the ED50 was 0.23 mg/kg.

For the compound `COCc1noc(-c2ncn3c2[C@@H]2CCCN2C(=O)c2c(Cl)cccc2-3)n1`, the IC50 in data set [2] turned out to be 5.2 nM. Further, the ED50 in data set [3] was 0.39 mg/kg.

As to `Cc1noc(-c2ncn3c2C2CCN2C(=O)c2c(Cl)cccc2-3)n1` (racemic), the IC50 in data set [2] stood at 10 nM. The compound also registered an ED50 in data set [3] of 0.32 mg/kg.

On to `Cc1noc(-c2ncn3c2[C@@H]2CCCN2C(=O)c2c-3ccc(F)c2Cl)n1` [Example 4, (S)-8-chloro-7-fluoro-11,12,13,13a-tetrahydro-1-(3-methyl-1,2,4-oxadiazol-5-yl)-9H-imidazo[1,5-a]pyrrolo[2,1-c][1,4]benzodiazepin-9-one], for which, in data set [1], the LD50 fell in the range of 1250 to 2500 mg/kg. In data set [2], this compound yielded an IC50 of 5.2 nM. This compound also gave an ED50 in data set [3] of 0.082 mg/kg.

Regarding `Cc1noc(-c2ncn3c2[C@@H]2CCCN2C(=O)c2c(Br)cccc2-3)n1` [Example 5, (S)-8-bromo-11,12,13,13a-tetrahydro-1-(3-methyl-1,2,4-oxadiazol-5-yl)9H-imidazo[1,5-a]pyrrolo[2,1-c][1,4] benzodiazepin-9-one], the LD50 in data set [1] is 2500 to 5000 mg/kg. In data set [2], this compound gave an IC50 of 2.1 nM. The compound further gave an ED50 in data set [3] of 0.068 mg/kg.

Turning to `Cc1noc(-c2ncn3c2[C@@H]2CCN2C(=O)c2c-3cccc2C(F)(F)F)n1` [Example 9, (S)-12,12a-dihydro-1-(3-methyl-1,2,4-oxadiazol-5-yl)-8-(trifluoromethyl)-9H,11H-azeto[2,1-c]imidazo[1,5-a][1,4]benzodiazepin-9-one], the IC50 in data set [2] stood at 3.7 nM. In data set [3], this compound yielded an ED50 of 0.021 mg/kg.

In data set [2], `CON=Cc1ncn2c1[C@@H]1CCN1C(=O)c1c(Cl)cccc1-2` [Example 23, (S)-8-chloro-12,12a-dihydro-9-oxo-9H,11H-azeto[2,1-c]imidazo[1,5-a][1,4]benzodiazepine-1-carboxaldehyde O-methyl oxime] registered an IC50 of 10 nM. This compound also gave an ED50 in data set [3] of 0.63 mg/kg.
